Assay [1] has as its system ERK 1/2. Description: ERK 1/2 phosphorylation (Western blotting) in C9 cells overexpressing LPA1-3. It is filed as cell-based, rat. Here is the method:
Cells were cultured to near confluence in 6 well plates and stimulated with the agents tested for the times indicated. Total cellular extracts were obtained by lysing the cells in Laemmli’s sample buffer containing 5% β-mercaptoethanol. The cell extracts were subject to 10% SDS-PAGE and transferred to nitrocellulose membranes. Membranes from samples obtained in parallel were incubated overnight at 4°C, with anti-pERK 1/2 (1:2000) or anti ERK 1/2 (1:2000). The membranes were washed and incubated for 1 h at room temperature with a horseradish peroxidase-conjugated secondary antibody (1:10,000) for enhanced chemiluminescence detection.

The target in assay [2] is T1, LPA3 receptor (Homo sapiens, UniProt Q9UBY5).
T1 sequence (Q9UBY5 1-353): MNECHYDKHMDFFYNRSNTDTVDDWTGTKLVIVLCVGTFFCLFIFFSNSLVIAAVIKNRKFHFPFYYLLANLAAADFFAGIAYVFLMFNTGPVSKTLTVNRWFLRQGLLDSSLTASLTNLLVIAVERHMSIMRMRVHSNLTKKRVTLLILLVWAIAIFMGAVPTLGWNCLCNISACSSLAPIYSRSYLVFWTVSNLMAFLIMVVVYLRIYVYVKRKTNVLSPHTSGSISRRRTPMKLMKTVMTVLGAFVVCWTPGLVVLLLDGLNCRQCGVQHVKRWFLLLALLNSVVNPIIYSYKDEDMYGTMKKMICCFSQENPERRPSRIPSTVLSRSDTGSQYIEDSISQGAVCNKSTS
Description: LPA3 receptor phosphorylation ([32P]Pi labeling, immunoprecipitation). The format is cell-based.

Assay [3] addresses T2, LPA2 receptor (Homo sapiens, UniProt Q9HBW0). Kind of assay: LPA2 receptor phosphorylation ([32P]Pi labeling, immunoprecipitation). It is filed as cell-based. Here is the method: (§1) The procedure was very similar to that previously described to study LPA1 receptor phosphorylation. In brief, cells were incubated in phosphate-free Dulbecco’s modified Eagle’s medium containing 100 μCi/ml [^32P]Pi for 3 h at 37°C. LPA1- and LPA2-expressing cells were cultured in 6 well plates, whereas those expressing LPA3 receptors were cultured in 10 cm dishes. Labeled cells were stimulated with the agents tested and then washed twice with ice-cold phosphate buffered saline and solubilized in buffer containing 10 mM Tris, 150 mM NaCl, 1% sodium cholate, 1% Nonident P40, protease and phosphatase inhibitors, pH 7.4 [11, 12, 14]. The lysates were incubated overnight with protein A-agarose and anti-GFP serum with constant agitation at 4°C. Samples were washed and the pellets containing the immunocomplexes were solubilized in Laemmli’s sample buffer containing 5% β-mercaptoethanol. Proteins were separated using 10% SDS-PAGE and electrotransferred onto polyvinyliden fluoride membranes. Receptor phosphorylation was analyzed with a Molecular Dynamics Typhoon PhosphorImager and the ImageJ software (http://rsb.info.nih.gov/ij/).

Assay [4] concerns the target T3, LPA1 receptor (Mus musculus, UniProt P61793).
T3 construct: expressed in transfected cells
Description: LPA1 receptor phosphorylation ([32P]Pi labeling, immunoprecipitation). It is filed as cell-based. As for the experimental part: as §1

The target in assay [5] is T1, LPA3 receptor. Kind of assay: Heterologous (PMA) / homologous (LPA) desensitization of LPA-induced calcium response, LPA3 cells. It is filed as cell-based. As for the experimental part: (§2) This procedure has been described previously. Briefly, cells were loaded with 2.5 μM Fura-2 AM in Krebs–Ringer–Hepes containing 0.05% bovine serum albumin (pH 7.4) for 1 h at 37°C and then washed to eliminate unincorporated indicator. Determinations were carried in an AMINCO-Bowman Series 2 luminescence spectrometer, employing 340 and 380 nm excitation wavelengths and an emission wavelength of 510 nm; chopper interval was 0.5 sec. The intracellular calcium concentration was calculated as described by Grynkiewicz et al.. In the experiments where prolonged incubation was required (resensitization studies), cells were stimulated, washed, and the incubation was continued in the presence of Fura-2 AM, to avoid dye depletion.
(§3) Agonists-mediated decreases occurred in a concentration-dependent fashion, with a maximum at the concentration of ~ 100 nM. […] It is worth noticing that the shift in the curves was more pronounced in LPA1- or LPA3-expressing cells, than in those that expressed the LPA2 subtype.
(§4) Plotted are the increases in calcium as the percentage of that obtained in cells preincubated without any agent as mean ± S. E. M. of 6 experiments using different cell preparations.

The target of assay [6] is T3, LPA1 receptor. Kind of assay: LPA1 receptor internalization, confocal imaging. It is filed as cell-based. The note with it: 1 μM agent, 30 or 60 min, LPA1 cells. As for the experimental part:
(§5) Cells were seeded at approximately 30% confluence onto glass-bottomed Petri dishes and cultured for 3 h at 37°C in media containing 1% serum. After treatment, cells were washed three times with phosphate buffered saline and fixed with 4% paraformaldehyde in 0.1 M phosphate buffer for 20 min at room temperature; samples were then washed three additional times with phosphate buffered saline. The fluorescent images were acquired with an Olympus Fluoview FV10 confocal microscope with a water-immersion objective (60X). To determine receptor internalization, the plasma membrane was delineated utilizing the differential interference contrast imaging, and fluorescence in this region was quantified employing the ImageJ software. At least 5 or 6 images of different cultures were taken for each condition. Data were normalized as follows: for each experiment, fluorescence (arbitrary units) at the plasma membrane of baseline samples were pooled and the average was considered as 100%.

The target in assay [7] is T2, LPA2 receptor. Kind of assay: Heterologous (PMA) / homologous (LPA) desensitization of LPA-induced calcium response, LPA2 cells. It is filed as cell-based. Here is the method: as §2, §3, §4
The target of assay [8] is T1, LPA3 receptor. Kind of assay: LPA3 receptor internalization, confocal imaging. The note with it: 1 μM agent, 30 or 60 min, LPA3 cells. The format is cell-based. As for the experimental part:
as §5

In assay [9] the target is T3, LPA1 receptor. Description: Heterologous (PMA) / homologous (LPA) desensitization of LPA-induced calcium response, LPA1 cells. It is filed as cell-based. Here is the method:
as §2, §3, §4

Assay [10] deals with T2, LPA2 receptor. Kind of assay: LPA2 receptor internalization, confocal imaging. The format is cell-based. The note with it: 1 μM agent, 30 or 60 min, LPA2 cells. Here is the method: as §5
The mark [11] stands for this setting: read-out: IC50, inhibition of LPA-induced calcium response (heterologous desensitization).

Data on four compounds can be found in paper PMC4608732, “Phosphorylation and Internalization of Lysophosphatidic Acid Receptors LPA1, LPA2, and LPA3” (PLoS ONE, 2015).

pEC50, pIC50: −log10 of the molar value. Some results are limits rather than exact numbers.

By pIC50 is commonly meant −log10 of the IC50, conventionally taken in molar units. As a reminder, the pEC50 is the negative decadic logarithm of the EC50, by convention in mol/L. The low end stands for a large EC50, the high end for a small EC50.

T3 sequence (P61793 whole entry): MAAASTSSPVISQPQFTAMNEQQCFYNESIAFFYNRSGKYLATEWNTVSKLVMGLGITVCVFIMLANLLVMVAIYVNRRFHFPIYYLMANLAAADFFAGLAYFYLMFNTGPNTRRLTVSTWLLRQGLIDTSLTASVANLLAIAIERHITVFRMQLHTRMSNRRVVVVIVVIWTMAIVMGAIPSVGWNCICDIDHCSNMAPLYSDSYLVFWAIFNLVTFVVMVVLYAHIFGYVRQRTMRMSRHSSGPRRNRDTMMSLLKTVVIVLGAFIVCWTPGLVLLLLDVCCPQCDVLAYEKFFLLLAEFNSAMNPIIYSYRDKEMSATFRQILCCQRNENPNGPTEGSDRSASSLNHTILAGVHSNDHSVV
T2 sequence (Q9HBW0 whole entry): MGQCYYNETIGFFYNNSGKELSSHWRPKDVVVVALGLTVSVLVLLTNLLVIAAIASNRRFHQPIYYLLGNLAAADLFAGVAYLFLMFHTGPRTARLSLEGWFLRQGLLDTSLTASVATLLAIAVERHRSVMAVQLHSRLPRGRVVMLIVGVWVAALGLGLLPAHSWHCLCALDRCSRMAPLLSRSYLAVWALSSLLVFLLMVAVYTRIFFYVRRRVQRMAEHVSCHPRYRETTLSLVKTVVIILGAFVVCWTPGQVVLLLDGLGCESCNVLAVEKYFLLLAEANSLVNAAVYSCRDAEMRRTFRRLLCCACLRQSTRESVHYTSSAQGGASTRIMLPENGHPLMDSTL

As to “EGF: epidermal growth factor, obtained from Preprotech (NSDSECPLSHDGYCLHDGVCMYIEALDKYACNCVVGYIGERCQYRDLKWWELR; UniProt P01133 971-1023, looked up)”, the “increase in ERK phosphorylation” value in [1] (100 ng/ml EGF, 5 min, cells overexpressing LPA1-3) was ~ 4 fold.

`COc1cc2ncnc(Nc3cccc(Cl)c3)c2cc1OC` [AG1478]: the “effect on LPA-induced receptor phosphorylation” value in [2] (10 μM AG1478 30 min, then 1 μM LPA 15 min, LPA3 cells) is “markedly reduced (but did not abolish)”; in [3] (10 μM AG1478 30 min, then 1 μM LPA 15 min, LPA2 cells) it was “markedly reduced (but did not abolish)”; in [4] (10 μM AG1478 30 min, then 1 μM LPA 15 min, LPA1 cells), “markedly reduced (but did not abolish)”. In addition, the “effect on baseline phospho-ERK signal” value is “did not alter it” in assay [1] (10 μM AG1478 30 min, cells expressing LPA1 receptors); “decrease it” in assay [1] (10 μM AG1478 30 min, cells overexpressing LPA2, statistically insignificant); “decrease it” in assay [1] (10 μM AG1478 30 min, cells overexpressing LPA3, statistically significant). Also, the “effect on LPA- and EGF-induced ERK phosphorylation” value in [1] (10 μM AG1478 30 min, then 1 μM LPA or 100 ng/ml EGF 5 min) is reported as “clearly diminished the effect of both growth factors”.

Take `CCCCCCCCCCCCCC(=O)O[C@@H]1[C@@H](C)[C@@]2(O)[C@@H](C=C(CO)C[C@]3(O)C(=O)C(C)=C[C@@H]23)[C@@H]2C(C)(C)[C@]12OC(C)=O` [PMA, phorbol myristate acetate]: the negative-log IC50 (pIC50) in assay [5] (setting [11]) was 8.00 to 8.52; in [7] (setting [11]), 8.00 to 8.52; in assay [9] (setting [11]) it was 8.52 to 9.00. Also, the pEC50 in [2] and in assay [4] was 8.00 to 8.52 in each case. The “time to maximum receptor phosphorylation” value in assay [2] (1 μM agent, LPA3 cells) is at most 5 min; in assay [3] (1 μM agent, LPA2 cells), at most 5 min; in [4] (1 μM agent, LPA1 cells) it was at most 5 min. Further, the “concentration at which receptor phosphorylation saturates” value in assay [2] (15 min incubation, LPA3-overexpressing cells) worked out at 100 nM; in assay [4] (15 min incubation, LPA1-overexpressing cells), 100 nM. The “receptor internalization (fluorescence at the plasma membrane)” value in assay [6] and in assay [8] was “markedly decreasing fluorescence at the plasma membrane level” in each case. Moreover, the “remaining calcium response to LPA” value in [7] (LPA2 cells, highest PMA concentration tested) is 30–40%. Moreover, in assay [3] (15 min incubation, LPA2-overexpressing cells, shift to higher concentrations), the “concentration-response curve, receptor phosphorylation” value was “no clear saturation was obtained”. For the same compound, the “receptor internalization (decrease in fluorescence at the plasma membrane, compared with other subtypes)” value in assay [10] was “much less intense”.

On to `CN(C)CCCn1cc(C2=C(c3c[nH]c4ccccc34)C(=O)NC2=O)c2ccccc21` [bisindolylmaleimide I, Bisindolylmaleimide I], for which the “effect on LPA-induced desensitization” value in [5] (15 min preincubation with inhibitor, 1 μM LPA, LPA3 cells) was “unable to alter LPA-induced desensitization”; in [7] (15 min preincubation with inhibitor, 1 μM LPA, LPA2 cells), “unable to alter LPA-induced desensitization”; in [9] (15 min preincubation with inhibitor, 1 μM LPA, LPA1 cells) it was “unable to alter LPA-induced desensitization”. The “effect on PMA-induced desensitization” value in assay [5] (15 min preincubation with inhibitor, 1 μM PMA, LPA3 cells) is reported as “markedly diminished PMA-induced desensitization”; in assay [7] (15 min preincubation with inhibitor, 1 μM PMA, LPA2 cells) it was “markedly diminished PMA-induced desensitization”; in assay [9] (15 min preincubation with inhibitor, 1 μM PMA, LPA1 cells), “markedly diminished PMA-induced desensitization”.
